Results as given in patent US20090182133A1 (priority 2005, published 2009).
pIC50, pKd: −log10 of the molar value. “Also recorded” adds a separate entry of the source. Read-outs that look alike come from different tables or passages of the source.

Tests used:
[1] = target: HCV 3CL proteinase (Human coronavirus 229E, UniProt P0C6X1); experiment: biochemical; assay type: binding, common cold virus (HCoV-229E antigenic type)
[2] = target: T1, SARS 3CL proteinase (Severe acute respiratory syndrome coronavirus, UniProt P0C6X7); experiment: biochemical; assay type: binding, SARS-CoV
[3] = target: T1, SARS 3CL proteinase; experiment: biochemical; set-up: species or system SARS-CoV

Sequence of HCV 3CL proteinase (P0C6X1 2966-3267 limits assumed): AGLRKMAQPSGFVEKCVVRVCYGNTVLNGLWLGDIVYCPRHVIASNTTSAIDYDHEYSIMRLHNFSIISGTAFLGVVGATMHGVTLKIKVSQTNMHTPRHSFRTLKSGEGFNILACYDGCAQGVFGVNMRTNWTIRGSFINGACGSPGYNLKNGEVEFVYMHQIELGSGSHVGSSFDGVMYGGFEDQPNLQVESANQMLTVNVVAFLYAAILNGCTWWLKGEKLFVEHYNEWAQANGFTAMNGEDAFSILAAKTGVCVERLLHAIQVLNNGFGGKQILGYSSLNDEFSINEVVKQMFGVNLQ

In the case of `O=c1c(O[C@@H]2O[C@H](CO)[C@@H](O)[C@H](O)[C@H]2O)c(-c2ccc(O)c(O)c2)oc2cc(O)cc(O)c12` [IA-1, Quercetin-3-O-β-D-glucopyranoside], the pKd [1] was 4.54 and the “affinity with HCV 3CL proteinases (in words)” value [1] was “weaker affinity”.

With `O=c1c(O[C@@H]2OC[C@@H](O)[C@@H](O)[C@@H]2O)c(-c2ccc(O)c(O)c2)oc2cc(O)cc(O)c12` [IA-3, Quercetin-3-O-β-D-arabinopyranoside] the pKd [2] was 4.88, the “coupling/affinity with SARS 3CL (in words)” value (from here on “coupling/affinity”) [2] was “couple strongly” and the pIC50 [3] was 4.50. The pKd [1] was 5.42 and the “affinity with HCV 3CL proteinases (in words)” value [1] was “high affinity”.

For `C[C@H]1O[C@@H](Oc2c(-c3ccc(O)c(O)c3)oc3cc(O)cc(O)c3c2=O)[C@H](O)[C@@H](O)[C@H]1O` [IA-4, Quercetin-3-O-β-D-fucopyranoside], the pKd [2] was 3.98, the “coupling/affinity” value [2] was “couple strongly; also recorded: weaker affinity” and the pIC50 [3] was 4.62. For the same molecule, the pKd [1] was 5.24 and the “affinity with HCV 3CL proteinases (in words)” value [1] was “high affinity”.

For `O=c1c(OC2CCCCC2)c(-c2ccc(O)c(O)c2)oc2cc(O)ccc12` [IB-1, 3-O-cyclohexyl-3′,4′,7-trihydroxy-flavonol], the pKd [2] was 4.47, the “coupling/affinity” value [2] was “couple strongly” and the melting point was 98 to 100 °C. The pIC50 [3] was 4.48, the pKd [1] was 5.45 and the “affinity with HCV 3CL proteinases (in words)” value [1] was “high affinity”.

For `O=c1c(OC2CCCCCC2)c(-c2ccc(O)c(O)c2)oc2cc(O)ccc12` [IB-3, 3-O-cycloheptyl-3′,4′,7-trihydroxy-flavonol], the pKd [2] was 4.47, the “coupling/affinity” value [2] was “couple strongly” and the melting point was 68 to 71 °C. The pKd [1] was 5.82 and the “affinity with HCV 3CL proteinases (in words)” value [1] was “high affinity”.

In the case of `O=c1c(OCC2COc3ccccc3O2)c(-c2cc(O)cc(O)c2)oc2cc(O)ccc12` (stereo not drawn) [IB-4, 3-(2,3-dihydro-benzo[1,4]dioxan-2-yl-methoxy)-3′,5′,7-trihydroxy-flavonol], the “coupling/affinity” value [2] was “couple strongly”, the pKd ([2]; read-out: KD SARS 3CL) was 4.77 and the “affinity with HCV 3CL proteinases (in words)” value [1] was “high affinity”. It also gave a pKd ([1]; read-out: KD HCV 3CL) of 5.59.
